# Like-named read-outs stand apart in the source and are kept apart here. Marks after values point to notes of the source that are not given here.
# How the values were obtained:
# [1] = Caco-2 transepithelial transport assay of digested red wine; format: in vitro ADME, human; conditions: human, Caco-2, apical to basolateral
# Protocol: (§1) Caco-2 cells were inoculated following the method of Hubatsch et al. […] Briefly, a 5% v/v of CO2 incubator at 37 °C was used to house the cells. […] Caco-2 cells were sub-cultured when they reached 80-90% of the adherent growth by treating them with a 0.05% v/v of trypsin-EDTA solution. The culture between passages 35 and 40 was used for the following experiment. Transport experiments were performed according to the method of Wu et al. with slight modifications. First, 1.0 × 10^5 Caco-2 cells were inoculated onto 12 mm transparent cell culture plates (Transwell). Media were carefully injected into the apical (0.5 mL) and basolateral (1.5 mL) sides of the Transwell plates. The cell culture medium had to be replaced every other day until the cells formed a monolayer. The integrity and transport ability of the Caco-2 cell monolayer were evaluated by measuring the trans-epithelial electrical resistance (TEER) with a MilliCell voltammeter (Millicell ERS-2, Merck Millipore, Billerica, MA, USA). […] When the cell activity exceeded 0.9, a transport experiment was conducted. The apical side was injected with a digested red wine sample (0.5 mL) and was thoroughly mixed with […] Balanced Salt Solution (HBSS) buffer solution. […] The cells were then cultured in a 37 °C, 5% CO2 incubator. Then, 0.25 mL samples were separately taken from the basolateral side of the monolayer. An equal volume of HBSS buffer was then added every half hour from the beginning of the culture until the end of the culture at 6 h. The collected samples were subsequently filtered and placed in the sample bottle for further HPLC analysis. This experiment was repeated several times to collect enough samples for the next antioxidant test. […] The Agilent 1100 series HPLC instrument was used; it was equipped with a degasser, quaternary pump solvent delivery, a DAD system, and a single quadrupole mass detector coupled with an electrospray ionization LC-MS interface. […] The column temperature was kept at 30 °C, the injection volume was 10 μL, and the flow rate was 0.3 mL/min. The eluents were water and formic acid in a 99:1 (v/v) (A) ratio and 100% acetonitrile (B). The gradient elution procedure was as follows: (1) 3% B solvent at 0 min, (2) 3 to 16% B solvent at 10 min, (3) 16 to 20% B solvent at 30 min, and (4) 20% B solvent maintained until the procedure was completed. The MS configuration was as follows: ESI, negative ion mode, nebulizer pressure of 30 psi, a dry gas flow rate of 10 mL/min, dry gas temperature of 350 °C, and a scan rate of 100~1200 m/z. PCs were determined according to their retention times, UV/VIS spectra, and high-resolution MS spectra, in addition to a comparison with the standards. […] If a standard was unavailable, a structurally related compound was used. Putative annotations were made using spectral features and literature information on the chromatographic properties and mass spectra records from the metabolome database. A standard curve was drawn using methanol solutions with different concentrations as the standards. […] PCs All of the samples were determined in triplicate.
# [2] = test system: Caco-2 cell monolayer; experiment: as above; format: in vitro ADME, human
# Protocol: as §1
# [3] = PC content of red wine before and after in vitro simulated gastrointestinal digestion (HPLC); format: in vitro ADME
# Protocol: The digestion procedure was carried out by adapting the method of Brodkorb et al. and Gómez et al.. […] One milliliter (50 units/mL) of porcine amylase was prepared in a 15 mM Na₃PO₄ buffer solution (pH adjusted to 6.8) containing 1.5 mM CaCl2, and it was added to the red wine solution. After 5 min, 4.5 mL of 0.12 M HCl was added to the mixture to adjust the pH to 2.4. One milliliter of porcine pepsin (0.02 mg/L) was dissolved in a 20 mM HCl solution. The mixture was then maintained at 37 °C for 120 min. The digestion mixture was then centrifuged at 8000× g for 15 min to obtain samples from the gastric digestion phase. […] The mixture was incubated at pH 6.5 at 37 °C for 3 h before being centrifuged. The extracts of the intestinal phase were the supernatants. The same operation was done three times, and each sample was stored in a refrigerator (−20 °C) immediately for further analysis.
# The Pati method was adopted, with slight modifications, to measure the content of the PCs. The Agilent 1100 series HPLC instrument was used; it was equipped with a degasser, quaternary pump solvent delivery, a DAD system, and a single quadrupole mass detector coupled with an electrospray ionization LC–MS interface. Briefly, th samples were injected into a Zorbax SB C18 reversed-phase column (5 µm,150 × 2.1 mm, Agilent Technologies, Santa Clara, CA, USA) using an autosampler after filtering through 0.45 µm cellulose acetate syringe filters. The column temperature was kept at 30 °C, the injection volume was 10 µL, and the flow rate was 0.3 mL/min. The eluents were water and formic acid in a 99:1 (v/v) (A) ratio and 100% acetonitrile (B). […] The MS configuration was as follows: ESI, negative ion mode, nebulizer pressure of 30 psi, a dry gas flow rate of 10 mL/min, dry gas temperature of 350 °C, and a scan rate of 100~1200 m/z. PCs were determined according to their retention times, UV/VIS spectra, and high-resolution MS spectra, in addition to a comparison with the standards. […] Putative annotations were made using spectral features and literature information on the chromatographic properties and mass spectra records from the metabolome database. A standard curve was drawn using methanol solutions with different concentrations as the standards. The limits of detection and quantitation were calculated according to the signal-to-noise ratio (limit of detection: signal-to-noise ratio ≥ 3; limit of quantitation: signal-to-noise ratio ≥ 10). […] PCs All of the samples were determined in triplicate.
# [4] = digested Cabernet red wine, read-out: Apparent Permeability Coefficients, Cabernet
# [5] = digested Helanshan red wine, read-out: Apparent Permeability Coefficients, Helanshan
# [6] = digested Tianzhu red wine, read-out: Apparent Permeability Coefficients, Tianzhu
# [7] = Cabernet red wine, digested sample, basolateral side of Caco-2 monolayer
# [8] = Helanshan red wine, digested sample, basolateral side of Caco-2 monolayer
# [9] = Tianzhu red wine, digested sample, basolateral side of Caco-2 monolayer
# [10] = Cabernet red wine, after simulated gastrointestinal digestion
# [11] = Helanshan red wine, after simulated gastrointestinal digestion
# [12] = Tianzhu red wine, after simulated gastrointestinal digestion
# [13] = apical to basolateral, digested Cabernet red wine
# [14] = apical to basolateral, digested Helanshan red wine
# [15] = apical to basolateral, digested Tianzhu red wine
Compound,"PC Contents, Cabernet, Transmembrane [2, 7]","PC Contents, Helanshan, Transmembrane [2, 8]","PC Contents, Tianzhu, Transmembrane [2, 9]","PC Contents, Cabernet, After Digestion [3, 10]","PC Contents, Helanshan, After Digestion [3, 11]","PC Contents, Tianzhu, After Digestion [3, 12]","Apparent Permeability Coefficients, Helanshan [2, 14]","Apparent Permeability Coefficients, Tianzhu [2, 15]","Apparent Permeability Coefficients, Cabernet ([2]; Caco-2)","Apparent Permeability Coefficients, Helanshan ([2]; Caco-2)","Apparent Permeability Coefficients, Tianzhu ([2]; Caco-2)","PC Contents, Cabernet, Transmembrane ([2]; Caco-2)","PC Contents, Helanshan, Transmembrane ([2]; Caco-2)","PC Contents, Tianzhu, Transmembrane ([2]; Caco-2)","PC Contents, Cabernet, After Digestion [3]","PC Contents, Helanshan, After Digestion [3]","PC Contents, Tianzhu, After Digestion [3]",other results
C[C@@H]1O[C@@H](O[C@H]2C(=O)c3c(O)cc(O)cc3O[C@@H]2c2ccc(O)c(O)c2)[C@H](O)[C@H](O)[C@H]1O [Astilbin],1.11 ± 0.05 ^a mg/L,0.93 ± 0.04 ^a mg/L,5.05 ± 0.19 ^a mg/L,28.22 ± 1.07 ^b mg/L,24.63 ± 1.13 ^b mg/L,25.36 ± 1.32 ^b mg/L,–,–,–,–,–,–,–,–,–,–,–,"Papp at 6 h [1, 4]: 24.6 ± 2.3 nm/s; Papp at 6 h [1, 5]: 23.7 ± 3.4 nm/s; Papp at 6 h [1, 6]: 24.1 ± 2.6 nm/s"
Oc1cc(O)c2c(c1)O[C@H](c1ccc(O)c(O)c1)[C@H](O)C2 [Epicatechin],–,–,–,–,–,–,–,–,–,–,–,–,–,–,–,–,–,"Papp at 6 h [1, 4]: 114 ± 17.7 nm/s; Papp at 6 h [1, 5]: 115 ± 15.3 nm/s; Papp at 6 h [1, 6]: 114 ± 14.6 nm/s"
O=c1c(O[C@@H]2O[C@H](CO)[C@@H](O)[C@H](O)[C@H]2O)c(-c2ccc(O)c(O)c2)oc2cc(O)cc(O)c12 [Quercetin-3-glc],7.47 ± 0.23 ^a mg/L,5.10 ± 0.28 ^a mg/L,37.54 ± 1.95 ^a mg/L,202.22 ± 10.52 ^b mg/L,145.43 ± 5.38 ^b mg/L,188.45 ± 8.29 ^b mg/L,2.19 ± 0.26 ^a ×10^−6 cm/s,2.23 ± 0.22 ^a ×10^−6 cm/s,–,–,–,–,–,–,–,–,–,"Apparent Permeability Coefficients, Cabernet [2, 13]: 2.31 ± 0.27 ^a ×10^−6 cm/s"
O=C(/C=C/c1ccc(O)cc1)O[C@@H](C(=O)O)[C@@H](O)C(=O)O [Coutaric acid],–,–,–,–,–,–,–,–,12.13 ± 1.19 ^a ×10^−6 cm/s,12.91 ± 1.32 ^a ×10^−6 cm/s,12.46 ± 1.42 ^a ×10^−6 cm/s,0.38 ± 0.02 ^a mg/L,0.61 ± 0.03 ^a mg/L,0.64 ± 0.03 ^a mg/L,1.96 ± 0.08 ^b mg/L,2.97 ± 0.15 ^b mg/L,–,–
COc1cc(/C=C/C(=O)OC(C(=O)O)C(O)C(=O)O)ccc1O (stereo not shown) [Fertaric acid],–,–,–,–,–,–,–,–,28.2 ± 4.11 ^a ×10^−6 cm/s,27.9 ± 3.64 ^a ×10^−6 cm/s,27.6 ± 3.89 ^a ×10^−6 cm/s,1.40 ± 0.07 ^a mg/L,0.81 ± 0.04 ^a mg/L,0.82 ± 0.03 ^a mg/L,3.11 ± 0.12 ^b mg/L,1.81 ± 0.10 ^c mg/L,4.11 ± 0.18 ^c mg/L,–
"COc1cc(-c2[o+]c3cc(O)cc(O)c3cc2O[C@@H]2O[C@H](CO)[C@@H](O)[C@H](O)[C@H]2O)cc(OC)c1O [Malvidin-3-glc, malvidin-3-glucoside]",62.38 ± 3.24 ^a mg/L,35.55 ± 1.46 ^a mg/L,20.68 ± 1.05 ^a mg/L,153.43 ± 5.83 ^b mg/L,88.2 ± 3.97 ^b mg/L,103.8 ± 5.71 ^b mg/L,25.19 ± 3.99 ^a ×10^−6 cm/s,25.37 ± 4.11 ^a ×10^−6 cm/s,–,–,–,–,–,–,–,–,–,–
COc1cc(-c2[o+]c3cc(O)cc(O)c3cc2OC2OC(COC(C)=O)C(O)C(O)C2O)cc(O)c1O (stereo not shown) [Petunidin-3-acglc],–,–,–,–,–,–,–,–,11.53 ± 2.01 ^a ×10^−6 cm/s,11.78 ± 2.11 ^a ×10^−6 cm/s,11.46 ± 2.05 ^a ×10^−6 cm/s,0.19 ± 0.008 ^a mg/L,0.18 ± 0.005 ^a mg/L,0.23 ± 0.008 ^a mg/L,1.05 ± 0.05 ^b mg/L,0.98 ± 0.05 ^b mg/L,1.17 ± 0.04 ^b mg/L,–
Procyanidin dimer,–,–,–,–,–,–,–,–,6.41 ± 1.05 ^a ×10^−6 cm/s,6.48 ± 0.98 ^a ×10^−6 cm/s,6.54 ± 0.86 ^a ×10^−6 cm/s,0.58 ± 0.03 ^a mg/L,0.62 ± 0.02 ^a mg/L,1.52 ± 0.08 ^a mg/L,5.64 ± 0.26 ^b mg/L,5.98 ± 0.27 ^b mg/L,7.64 ± 0.32 ^b mg/L,–
COc1cc(-c2oc3cc(O)cc(O)c3c(=O)c2O[C@@H]2O[C@H](CO)[C@@H](O)[C@H](O)[C@H]2O)ccc1O [Isorhamnetin-3-glc],0.74 ± 0.03 ^a mg/L,0.69 ± 0.03 ^a mg/L,1.97 ± 0.07 ^a mg/L,10.82 ± 0.32 ^b mg/L,9.87 ± 0.47 ^b mg/L,9.88 ± 0.35 ^b mg/L,4.39 ± 0.31 ^a ×10^−6 cm/s,4.35 ± 0.34 ^a ×10^−6 cm/s,–,–,–,–,–,–,–,–,–,"Apparent Permeability Coefficients, Cabernet [2, 13]: 4.29 ± 0.33 ^a ×10^−6 cm/s"

# Reference: article PMC9562916, “Investigation of the Phenolic Component Bioavailability Using the In Vitro Digestion/Caco-2 Cell Model, as well as the Antioxidant Activity in Chinese Red Wine” (Foods, 2022)
